Measured values published in patent US20080139458A1, “Methods of Treatment For Injured or Diseased Joints” (priority 2004, published 2008).
Values joined by “and” are separate entries in the source; they are usually repeats but may differ in a detail not shown here. Equal entries are not always repeated. Where two headings read alike, the source gives them in different places. Peptide text beside a SMILES is read from it. * marks the point of attachment. Cbz = O=C(OCc1ccccc1)*; CH2F = FC*

Experiments:
[1] = system: pooled rheumatoid arthritis (RA) synovial fluid (SF) aspirates supplemented with purified human lubricin; format: biochemical; conditions: for Change in coefficient of friction Δμ ± S.D.: 37° C., E-64 10 μM, Z-LLL-FMK 20 μM, PMSF 25 μM, EDTA 10 mM, Lubricin = no inhibitor
Protocol: (§1) The boundary lubricating abilities of protease-treated human lubricin and BSF were measured using a friction apparatus as reported by Davis et al., J. Biomech. Eng. 101:185-192, 1979. Lubricant (200 μL) was applied between a bearing of latex and a ring of polished glass with a contact area of 1.59 cm^2. The latex was oscillated, under a pressure of 0.35×10^6 N/m^2, against the polished glass with an entraining velocity of 0.37 mm/sec. The bearing system was axially loaded within a gimbals system free to rotate around two perpendicular horizontal axes. The friction apparatus recorded displacements of the gimbals system around the vertical loading axis through a linear displacement voltage transducer, where the output was directly proportional to the frictional torque (F). A bearing load of 70 newtons (N) was related to the coefficient of friction (μ) via Amonton's law, F=μN.
(§2) The μ of the lubricant was recorded at room temperature and was preceded by a baseline measurement of μ with normal saline (NS). Lubrication was manifested by a reduction in μ by the lubricant relative to that of NS. Negative Δμ (−Δμ) values indicate lubrication whereas positive Δμ (+Δμ) indicate friction. Addition of 200 μL of lubricant was followed by bringing the bearing surfaces close enough so that the solution wet both surfaces. After 5 min for equilibration, the latex-coated bearing was brought to rest on the glass as it was oscillating. Voltage measurements were recorded at 1, 3, and 5 min. After 5 min, the surfaces were separated for 2 min and then brought back together for three additional 5 min session. The 3 and 5 min μ values of the last two 5 min session were recorded and averaged, and data were later combined with another duplicate experiment providing 8 distinct measurements of μ.
(§3) The SF aspirates from patients diagnosed with a Noyes criteria grade III or IV OA (n=60), with RA (n=20), or with KJS (n=23) were pooled in equal proportions. […] The lubricin-supplemented pooled OA, RA, and KJS SF aspirates were treated at 37° C. and sampled after 24, 48, and 96 hours. The friction analysis of the sampled SF was conducted as described above. Normal human SF was obtained from cartilage allograft donors and was utilized as a control.
(§4) The treatments were performed at 37° C., and SF was sampled at 24, 48, and 96 hours post-treatment. The in vitro friction assay of sampled SF was performed as described above.

[2] = system: pooled knee joint synovitis (KJS) synovial fluid (SF) aspirates supplemented with purified human lubricin; format: biochemical; conditions: for Change in coefficient of friction Δμ ± S.D.: 37° C., E-64 10 μM, Z-LLL-FMK 20 μM, PMSF 25 μM, EDTA 10 mM, Lubricin = no inhibitor; for Lubricating ability compared to controls without enzyme inhibitors: KJS SF at 24, 48, and 96 hours, P<0.001
Protocol: as §1, §2, §3, §4

[3] = at 24, 48, and 96 hours, P<0.001

Compound	Change in coefficient of friction Δμ ± S.D. ([1]; 0 hrs)	Change in coefficient of friction Δμ ± S.D. ([1]; 24 hrs)	Change in coefficient of friction Δμ ± S.D. ([1]; 48 hrs)	Change in coefficient of friction Δμ ± S.D. ([1]; 96 hrs)	Δμ compared to lubricin-supplemented pooled RA SF aspirates [1, 3]	average increase in Δμ ([1]; at 24 hours, RA SF)	average increase in Δμ ([1]; at 48 hours, RA SF)	average increase in Δμ ([1]; at 96 hours, RA SF)	Change in coefficient of friction Δμ ± S.D. ([2]; 0 hrs)	Change in coefficient of friction Δμ ± S.D. ([2]; 24 hrs)	Change in coefficient of friction Δμ ± S.D. ([2]; 48 hrs)	Change in coefficient of friction Δμ ± S.D. ([2]; 96 hrs)	Lubricating ability compared to controls without enzyme inhibitors [2]	average increase in Δμ ([2]; at 24 hours, KJS SF)	average increase in Δμ ([2]; at 48 hours, KJS SF)	average increase in Δμ ([2]; at 96 hours, KJS SF)	average increase in Δμ [1]	Δμ compared to lubricin-supplemented pooled RA SF aspirates [1]	average increase in Δμ [2]	Δμ compared to lubricin-supplemented pooled KJS SF aspirates [2]
CC(C)C[C@H](NC(=O)[C@H]1O[C@@H]1C(=O)O)C(=O)NCCCCN=C(N)N (relative stereo) [E-64, L-trans-epoxysuccinyl-leucyl-amido-(4-guanidino)-butane]	−0.060 ± 0.002	−0.053 ± 0.004	−0.024 ± 0.002	−0.014 ± 0.004	significant decrease in Δμ	11.7%	60.0%	76.7%	−0.059 ± 0.004	−0.042 ± 0.005	−0.039 ± 0.007	−0.034 ± 0.002	preserved lubricating ability	32.7%	38.5%	42.4%				
O=C(O)CN(CCN(CC(=O)O)CC(=O)O)CC(=O)O [EDTA]																	90.0% and 88.3% and 128.3%	significant decrease in Δμ	50.0% and 80.0% and 85.0%	significant (P<0.01) decrease in Δμ
O=S(=O)(F)Cc1ccccc1 [PMSF, phenylmethanesulfonyl fluoride]	−0.060 ± 0.002	−0.009 ± 0.009	−0.008 ± 0.004	−0.009 ± 0.001	significant decrease in Δμ	85.0%	86.3%	85.0%	−0.060 ± 0.001	−0.033 ± 0.006	−0.030 ± 0.005	−0.027 ± 0.005	preserved lubricating ability	45.0%	50.0%	55.0%				
CC(C)C[C@H](NC(=O)[C@H](CC(C)C)NC(=O)[C@H](CC(C)C)NC(=O)OCc1ccccc1)C(=O)CF [Z-LLL-FMK, Z-Leu-Leu-Leu-fluoromethyl ketone] (Cbz-Leu-Leu-Leu-CH2F)	−0.060 ± 0.002	−0.049 ± 0.002	−0.019 ± 0.001	−0.005 ± 0.003	significant decrease in Δμ	18.3%	68.3%	91.7%	−0.060 ± 0.002	−0.035 ± 0.002	−0.031 ± 0.003	−0.028 ± 0.002	preserved lubricating ability	41.7%	48.3%	53.3%				
